Legend:
sigma receptor [1] = experiment: Sigma receptor binding assay, [^3 H]DTG, guinea pig brain membrane homogenates; settings: guinea pig brain membranes; for Binding to / selectivity at [^3 H]DTG-labelled sigma sites: drug specificity profile; for IC50: read-out: IC50 vs [^3 H]DTG (MEAN), […] [^3 H]DTG, pH 7.4, 90 minutes at room temperature, mean with SEM and n in own columns
sigma binding site = settings: cited from earlier work
sigma sites = settings: rat brain membrane; cited from earlier work
mu receptors = settings: cited from earlier work
kappa receptors = settings: cited from earlier work
[2] = in vivo; cited from earlier work
cholinergic sites = settings: cited from earlier work
[3] = system: D1 subclass of dopamine receptors; settings: cited from earlier work
muscarinic sites = settings: cited from earlier work
[4] = system: dopamine-stimulated CAMP production; settings: in vitro; cited from earlier work
adrenergic sites = settings: cited from earlier work
[5] = system: [^3 H]spiperone-labeled D2 site in striatum; settings: chronic administration (20 days) to rats; cited from earlier work
rats = settings: rat, in vivo; cited from earlier work
[6] = system: D2 class of striatal dopamine receptors; settings: rat striatum; cited from earlier work
histaminergic sites = settings: cited from earlier work
sigma receptor [7] = settings: cited from earlier work
rhesus monkeys = settings: introduction of foreign objects into cages; cited from earlier work
[8] = humans; cited from earlier work
[9] = system: dopamine-stimulated production of CAMP; settings: homogenates of rat striatum and olfactory tubercle; cited from earlier work
[10] = system: apomorphine-induced mesolimbic behaviors; settings: without altering intensity of stereotypic behaviors; cited from earlier work
dopamine synthesis = settings: cited from earlier work
sigma receptor [11] = settings: cited from earlier work; remark: listed apart in the source

Question: What does the source list for `C=CCN1CCC2(C)c3cc(O)ccc3CC1C2C` (single isomer, unassigned; (+)) [(+)SKF-10,047, N-allyl-normetazocine]?
Answer: Binding to / selectivity at [^3 H]DTG-labelled sigma sites (sigma receptor [1]): stereoselectivity for dextrorotatory isomers; Drug selectivity profile of sigma binding site (sigma binding site): selectively label a sigma receptor

Question: What does the source list for `CCCN1CCCC(c2cccc(O)c2)C1` (single isomer, unassigned; (+)) [(+)[^3 H]3-PPP, (+)[^3 H]3-(3-hydroxyphenyl)-N-(1-propyl)-piperidine]?
Answer: Binding to / selectivity at [^3 H]DTG-labelled sigma sites (sigma receptor [1]): virtually identical receptor binding characteristics and drug selectivity profiles; Selectivity for sigma sites (sigma sites): selective for sigma sites

Question: For `CCC12CCN(CC3CC3)C(C(=O)c3ccc(O)cc31)C2C` (single isomer, unassigned; (+)) [(+)[^3 H]-ethylketazocine], which “Sigma site selectivity of radioligand” value (sigma binding site) is on record?
Answer: The value was “not selective for the sigma site”.

Question: Which “Sigma site selectivity of radioligand” value (sigma binding site) does the source give for `C=CCN1CCC2(C)c3cc(O)ccc3CC1C2C` (single isomer, unassigned; (+)) [(+)[^3 H]SKF-10,047] here?
Answer: Its value is “not selective for the sigma site”.

Question: Which “Binding to / selectivity at [^3 H]DTG-labelled sigma sites” value (“Binding to / selectivity” for short) (sigma receptor [1]) does the source give for `CC(C)=CCN1CCC2(C)c3cc(O)ccc3CC1C2C` (single isomer, unassigned; (+)) [(+)pentazocine] here?
Answer: Its value is “stereoselectivity for dextrorotatory isomers”.

Question: Which results are given for `C=CCN1CCC2(C)c3cc(O)ccc3CC1C2C` (single isomer, unassigned; (-)) [(-)-SKF-10,047, N-allyl-normetazocine]?
Answer: Binding to mu receptors (mu receptors): labeled the mu and kappa receptors; Binding to kappa receptors (kappa receptors): labeled the mu and kappa receptors; Drug selectivity profile of sigma binding site (sigma binding site): not the sigma receptors

Question: Which Anxiolytic activity [2] does the source give for `C[C@@H]1CN(CCCn2c3ccccc3c3ccccc32)C[C@H](C)N1` [9-[3-(3,5-cis-dimethylpiperazino)-propyl]carbazole] here?
Answer: Its Anxiolytic activity is “anxiolytic activity”.

Question: With `OC(CCCN1CCN(c2ncc(F)cn2)CC1)c1ccc(F)cc1` (centres unmarked) [BMY 14802] as the compound, how does the “Binding to cholinergic sites” value (cholinergic sites) read?
Answer: Its value is “does not bind”.

Question: What about the “Interaction with D1 subclass of dopamine receptors” value [3] of the same compound?
Answer: Its value is “does not appear to interact”.

Question: What about the “Inhibition of [^3 H]SCH 23390 binding” value ([3]; in vitro) of the same compound?
Answer: Its value is “does not inhibit”.

Question: And the “Binding to muscarinic sites” value (muscarinic sites)?
Answer: Its value is “does not bind”.

Question: And the “Inhibition of dopamine-stimulated CAMP production” value [4]?
Answer: The value was “does not inhibit dopamine-stimulated CAMP production”.

Question: And the “Binding to adrenergic sites” value (adrenergic sites)?
Answer: The value was “does not bind”.

Question: And the “Maximal density of [^3 H]spiperone-labeled D2 site in striatum” value [5]?
Answer: Its value is “did not increase the maximal density”.

Question: And the Catalepsy in rats (rats)?
Answer: The Catalepsy in rats was “did not cause catalepsy in rats”.

Question: And the “Inhibition of [^3 H]spiperone binding to D2 receptors” value [6]?
Answer: The value was “does not inhibit the binding”.

Question: What about the “Binding to histaminergic sites” value (histaminergic sites) of the same compound?
Answer: Its value is “does not bind”.

Question: And the “Sigma receptor binding affinity” value (sigma receptor [7])?
Answer: The value was “relatively high affinity”.

Question: What about the “Potency at inhibiting sigma binding, dextrorotatory vs levorotatory enantiomer” value (sigma receptor [7]; dextrorotatory more potent than levorotatory enantiomer) of the same compound?
Answer: The value was 10 times.

Question: For `O=C1CC2(CCCC2)CC(=O)N1CCCCN1CCN(c2ncccn2)CC1` [Buspirone], which “Efficacy in taming of aggressive response” value (rhesus monkeys) is on record?
Answer: Its value is “efficacy in a predictive animal model”.

Question: Which IC50 (sigma receptor [1]) does the source give for `CC(=Nc1ccc(Br)cc1C)Nc1ccc(Br)cc1C` [N,N'-Bis(4-bromo-2-tolyl)acetamidine] here?
Answer: The IC50 was 25.8 nM.

Question: For `CC(=Nc1cccc2ccccc12)Nc1cccc2ccccc12` [N,N'-bis(1-naphthyl)acetamidine], which IC50 (sigma receptor [1]) is on record?
Answer: Its IC50 is 169 nM.

Question: For `CC(=Nc1ccccc1C(C)C)Nc1ccccc1C(C)C` [N,N'-bis(2-isopropylphenyl)acetamidine, N,N'-Bis(2-isopropylphenyl)acetamidine], which IC50 (sigma receptor [1]) is on record?
Answer: The IC50 was 77.4 nM.

Question: With `CCc1cccc(N=C(C)Nc2cccc(CC)c2)c1` [N,N'-bis(3-ethylphenyl)acetamidine, N,N'-Bis(3-ethylphenyl)acetamidine] as the compound, how does the IC50 (sigma receptor [1]) read?
Answer: The IC50 was 13 nM.

Question: For `CC(=Nc1ccccc1C)Nc1ccccc1C` [N,N'-bis(-o-tolyl)acetamidine, N,N'-Bis(o-methylphenyl)acetamidine], which IC50 (sigma receptor [1]) is on record?
Answer: Its IC50 is 15 nM.

Question: Which IC50 (sigma receptor [1]) does the source give for `CC(=NC12CC3CC(CC(C3)C1)C2)NC12CC3CC(CC(C3)C1)C2` [N,N'-bis(adamantan-1-yl)acetamidine, N,N'-Bis(adamantan-1-yl)acetamidine] here?
Answer: The IC50 was 15.7 nM.

Question: For `CCc1ccccc1N=C(C)Nc1ccccc1CC` [N,N'-bis-(o-ethylphenyl)acetamidine, N,N'-Bis(2-ethylphenyl)acetamidine], which IC50 (sigma receptor [1]) is on record?
Answer: The IC50 was 36.9 nM.

Question: With `CC(=Nc1ccccc1C(C)C)Nc1cccc2ccccc12` [N-(1-naphthyl)-N'-(2-isopropylphenyl)-acetamidine] as the compound, how does the IC50 (sigma receptor [1]) read?
Answer: The IC50 was 118 nM.

Question: Which IC50 (sigma receptor [1]) does the source give for `CCc1cccc(N=C(C)Nc2cccc3ccccc23)c1` [N-(1-naphthyl)-N'-(3-ethylphenyl)-acetamidine] here?
Answer: Its IC50 is 123 nM.

Question: For `CCc1cccc(N=C(C)Nc2cccc3ccccc23)c1` [N-(1-naphthyl)-N'-(m-ethylphenyl)-acetamidine], which IC50 (sigma receptor [1]) is on record?
Answer: The IC50 was 2410 nM.

Question: With `CC(=NC1CCCCC1)NC12CC3CC(CC(C3)C1)C2` [N-(Adamantan-1-yl)-N'-(cyclohexyl)acetamidine] as the compound, how does the IC50 (sigma receptor [1]) read?
Answer: The IC50 was 71.9 nM.

Question: With `CC(=Nc1ccccc1C)NC12CC3CC(CC(C3)C1)C2` [N-(Adamantan-1-yl)-N'-(o-methylphenyl)acetamidine] as the compound, how does the IC50 (sigma receptor [1]) read?
Answer: Its IC50 is 7.27 nM.

Question: For `CC(=NC1CCCCC1)Nc1ccccc1C` [N-(o-Methylphenyl)-N'-(cyclohexyl)acetamidine], which IC50 (sigma receptor [1]) is on record?
Answer: The IC50 was 9.01 nM.

Question: For `CN=C(C)Nc1ccccc1C` [N-(o-tolyl)-N'-methylacetamidine], which IC50 (sigma receptor [1]) is on record?
Answer: The IC50 was 354 nM.

Question: For `CC(=Nc1ccccc1C)NC1CC2CCC1C2` (centres unmarked) [N-Exonorbornyl-N'-(2-methylphenyl)acetamidine], which IC50 (sigma receptor [1]) is on record?
Answer: The IC50 was 9.32 nM.

Question: For `[3H]c1ccc(NC(=N)Nc2ccc([3H])cc2C)c(C)c1` [[^3 H]DTG, N,N'-di-(4-[^3 H]-2-methylphenyl)-guanidine], which “Binding to / selectivity” value (sigma receptor [1]) is on record?
Answer: Its value is “binds specifically and with high affinity to a single class of binding sites”.

Question: With `CN1CCc2cccc3c2[C@H]1Cc1ccc(O)c(O)c1-3` [apomorphine] as the compound, how does the “Binding to / selectivity” value (sigma receptor [1]) read?
Answer: The value was “insensitivity”.

Question: What about the “Drug selectivity profile of sigma binding site” value (“Drug selectivity profile” below) (sigma binding site) of the same compound?
Answer: The value was “insensitivity”.

Question: Which “Binding to / selectivity” value (sigma receptor [1]) does the source give for `NCCc1ccc(O)c(O)c1` [dopamine] here?
Answer: The value was “insensitivity”.

Question: What about the “Drug selectivity profile” value (sigma binding site) of the same compound?
Answer: Its value is “insensitivity”.

Question: Which “Binding to / selectivity” value (sigma receptor [1]) does the source give for `O=C(CCCN1CCC(O)(c2ccc(Cl)cc2)CC1)c1ccc(F)cc1` [haloperidol] here?
Answer: The value was “high affinity”.

Question: And the “Drug selectivity profile” value (sigma binding site)?
Answer: The value was “high affinity”.

Question: Which “Binding to / selectivity” value (sigma receptor [1]) does the source give for `C=CCN1CC[C@]23c4c5ccc(O)c4O[C@H]2C(=O)CC[C@@]3(O)[C@H]1C5` [naloxone] here?
Answer: Its value is “insensitivity”.

Question: And the “Drug selectivity profile” value (sigma binding site)?
Answer: The value was “insensitivity”.

Question: Which Extrapyramidal effects [8] does the source give for `C[C@@H]1CN(CCCn2c3ccccc3c3ccccc32)C[C@H](C)N1.Cl.Cl` [rimcazole, cis-9-[3-(3,5-dimethyl-1-piperazinyl)-propyl]carbazole dihydrochloride] here?
Answer: The Extrapyramidal effects was “without extrapyramidal effects”.

Question: And the “Effect on dopamine-stimulated production of CAMP” value [9]?
Answer: The value was “does not affect dopamine-stimulated production of CAMP”.

Question: What about the “Antagonism of apomorphine-induced mesolimbic behaviors” value [10] of the same compound?
Answer: The value was “antagonize apomorphine-induced mesolimbic behaviors selectively without altering the intensity of stereotypic behaviors”.

Question: And the “Acceleration of rate of dopamine synthesis” value (dopamine synthesis)?
Answer: Its value is “does not accelerate the rate of dopamine synthesis”.

Question: What about the “Inhibition of specific binding of dextrorotatory tritiated SKF-10,047” value (sigma receptor [11]) of the same compound?
Answer: Its value is “competitively inhibit the specific binding”.

From US5308869A, “Substituted amidines having high binding to the sigma receptor and the use thereof” (priority 1992, dated 1994)
